Test results published in PubChem BioAssay AID1259407 (Chemical Carcinogenesis Research Information System (CCRIS), 2018).
Calls of active or inactive are those of the source. How the calls were made is not given here.

Test system: CCRIS mutagenicity, Ames/micronucleus/aberration tests
Experiment: CCRIS mutagenicity studies
[1] = Test System: AMES SALMONELLA TYPHIMURIUM, Strain/Indicator: TA98, Metabolic Activation: NONE, Method: STANDARD PLATE
[2] = Test System: AMES SALMONELLA TYPHIMURIUM, Strain/Indicator: TA98, Metabolic Activation: RAT, LIVER, S-9, AROCLOR 1254, Method: STANDARD PLATE
[3] = Test System: AMES SALMONELLA TYPHIMURIUM, Strain/Indicator: TA100, Metabolic Activation: NONE, Method: STANDARD PLATE
[4] = Test System: AMES SALMONELLA TYPHIMURIUM, Strain/Indicator: TA100, Metabolic Activation: RAT, LIVER, S-9, AROCLOR 1254, Method: STANDARD PLATE
[5] = Test System: AMES SALMONELLA TYPHIMURIUM, Strain/Indicator: TA1535, Metabolic Activation: NONE, Method: STANDARD PLATE
[6] = Test System: AMES SALMONELLA TYPHIMURIUM, Strain/Indicator: TA1535, Metabolic Activation: RAT, LIVER, S-9, AROCLOR 1254, Method: STANDARD PLATE
[7] = Test System: AMES SALMONELLA TYPHIMURIUM, Strain/Indicator: TA1537, Metabolic Activation: NONE, Method: STANDARD PLATE
[8] = Test System: AMES SALMONELLA TYPHIMURIUM, Strain/Indicator: TA1537, Metabolic Activation: RAT, LIVER, S-9, AROCLOR 1254, Method: STANDARD PLATE
[9] = Test System: AMES SALMONELLA TYPHIMURIUM, Strain/Indicator: TA1538, Metabolic Activation: NONE, Method: STANDARD PLATE
[10] = Test System: AMES SALMONELLA TYPHIMURIUM, Strain/Indicator: TA1538, Metabolic Activation: RAT, LIVER, S-9, AROCLOR 1254, Method: STANDARD PLATE
[11] = Test System: AMES SALMONELLA TYPHIMURIUM, Strain/Indicator: TA98, Metabolic Activation: NONE, Method: PREINCUBATION
[12] = Test System: AMES SALMONELLA TYPHIMURIUM, Strain/Indicator: TA100, Metabolic Activation: NONE, Method: PREINCUBATION
[13] = Test System: AMES SALMONELLA TYPHIMURIUM, Strain/Indicator: TA1535, Metabolic Activation: NONE, Method: PREINCUBATION
[14] = Test System: AMES SALMONELLA TYPHIMURIUM, Strain/Indicator: TA1537, Metabolic Activation: NONE, Method: PREINCUBATION

C=C(C)C(=O)OCCOCCOC(=O)C(=C)C
mutagenic call [1]: inactive; negative
mutagenic call [2]: inactive; negative
mutagenic call (Test System: AMES SALMONELLA TYPHIMURIUM, Strain/Indicator: TA98, Metabolic Activation: RAT, LIVER, S-9, SODIUM PHENOBARBITAL, Method: STANDARD PLATE): inactive; negative
mutagenic call [3]: inactive; negative
mutagenic call [4]: inactive; negative
mutagenic call (Test System: AMES SALMONELLA TYPHIMURIUM, Strain/Indicator: TA100, Metabolic Activation: RAT, LIVER, S-9, SODIUM PHENOBARBITAL, Method: STANDARD PLATE): inactive; negative
mutagenic call [5]: inactive; negative
mutagenic call [6]: inactive; negative
mutagenic call (Test System: AMES SALMONELLA TYPHIMURIUM, Strain/Indicator: TA1535, Metabolic Activation: RAT, LIVER, S-9, SODIUM PHENOBARBITAL, Method: STANDARD PLATE): inactive; negative
mutagenic call [7]: inactive; negative
mutagenic call [8]: inactive; negative
mutagenic call (Test System: AMES SALMONELLA TYPHIMURIUM, Strain/Indicator: TA1537, Metabolic Activation: RAT, LIVER, S-9, SODIUM PHENOBARBITAL, Method: STANDARD PLATE): inactive; negative
mutagenic call [9]: inactive; negative
mutagenic call [10]: inactive; negative
mutagenic call (Test System: AMES SALMONELLA TYPHIMURIUM, Strain/Indicator: TA1538, Metabolic Activation: RAT, LIVER, S-9, SODIUM PHENOBARBITAL, Method: STANDARD PLATE): inactive; negative

Cc1ccc(S(=O)(=O)OC(C)C)cc1
mutagenic call (End Point: IN VITRO MICRONUCLEUS, Test System: MOUSE LYMPHOMA L5178Y CELLS, Metabolic Activation: NONE): active; positive
mutagenic call (End Point: IN VITRO MICRONUCLEUS, Test System: MOUSE LYMPHOMA L5178Y CELLS, Metabolic Activation: RAT, LIVER, S-9): active; positive
mutagenic call (End Point: In vitro micronucleus, Test System: Chinese Hamster Ovary (CHO-WBL) cells, Metabolic Activation: None): active; positive (p<0.05)
mutagenic call [3]: active; positive
mutagenic call (Test System: AMES SALMONELLA TYPHIMURIUM, Strain/Indicator: TA100, Metabolic Activation: RAT, LIVER, S-9, Method: STANDARD PLATE): active; positive

CCCCS(=O)(=O)n1ncc(Cl)c(Cl)c1=O
mutagenic call [1]: inactive; negative
mutagenic call [2]: inactive; negative
mutagenic call [3]: active; positive
mutagenic call [4]: active; positive
mutagenic call [5]: inactive; negative
mutagenic call [6]: active; positive
mutagenic call [7]: inactive; negative
mutagenic call [8]: inactive; negative

CCCCCCCCCCCCCO
mutagenic call [11]: inactive; negative
mutagenic call (Test System: AMES SALMONELLA TYPHIMURIUM, Strain/Indicator: TA98, Metabolic Activation: RAT LIVER S-9, PHENOBARBITAL AND BETA-NAPHTHOFLAVONE, Method: PREINCUBATION): inactive; negative
mutagenic call [12]: inactive; negative
mutagenic call (Test System: AMES SALMONELLA TYPHIMURIUM, Strain/Indicator: TA100, Metabolic Activation: RAT LIVER S-9, PHENOBARBITAL AND BETA-NAPHTHOFLAVONE, Method: PREINCUBATION): inactive; negative
mutagenic call [13]: inactive; negative
mutagenic call (Test System: AMES SALMONELLA TYPHIMURIUM, Strain/Indicator: TA1535, Metabolic Activation: RAT LIVER S-9, PHENOBARBITAL AND BETA-NAPHTHOFLAVONE, Method: PREINCUBATION): inactive; negative
mutagenic call [14]: inactive; negative
mutagenic call (Test System: AMES SALMONELLA TYPHIMURIUM, Strain/Indicator: TA1537, Metabolic Activation: RAT LIVER S-9, PHENOBARBITAL AND BETA-NAPHTHOFLAVONE, Method: PREINCUBATION): inactive; negative
mutagenic call (Test System: E.COLI, Strain/Indicator: WP2UVRA/PKM101, Metabolic Activation: NONE, Method: PREINCUBATION): inactive; negative
mutagenic call (Test System: E.COLI, Strain/Indicator: WP2UVRA/PKM101, Metabolic Activation: RAT LIVER S-9, PHENOBARBITAL AND BETA-NAPHTHOFLAVONE, Method: PREINCUBATION): inactive; negative

Cc1ccc2nc3c(ccc4ccccc43)c(CO)c2c1
mutagenic call [4]: active; positive

O=[N+]([O-])c1cccc2cnsc12
mutagenic call [3]: active; positive

Nc1nc2c(ccc3ncccc32)s1
mutagenic call [10]: active; positive

CCCCN(CC(C)=O)N=O
mutagenic call (Test System: AMES SALMONELLA TYPHIMURIUM, Strain/Indicator: TA1535, Metabolic Activation: RAT, LIVER, S-9, KC500 OR PHENOBARBITAL, Method: LIQUID SUSPENSION): active; positive

CCCCC(CC)COP(=O)(Oc1ccccc1)Oc1ccccc1 (stereo not drawn)
mutagenic call (Test System: AMES SALMONELLA TYPHIMURIUM, Strain/Indicator: TA98, Metabolic Activation: HAMSTER, LIVER, S-9, AROCLOR 1254 (10%), Method: PREINCUBATION): inactive; negative
mutagenic call [11]: inactive; negative
mutagenic call (Test System: AMES SALMONELLA TYPHIMURIUM, Strain/Indicator: TA98, Metabolic Activation: RAT, LIVER, S-9, AROCLOR 1254 (10%), Method: PREINCUBATION): inactive; negative
mutagenic call (Test System: AMES SALMONELLA TYPHIMURIUM, Strain/Indicator: TA100, Metabolic Activation: HAMSTER, LIVER, S-9, AROCLOR 1254 (10%), Method: PREINCUBATION): inactive; negative
mutagenic call [12]: inactive; negative
mutagenic call (Test System: AMES SALMONELLA TYPHIMURIUM, Strain/Indicator: TA100, Metabolic Activation: RAT, LIVER, S-9, AROCLOR 1254 (10%), Method: PREINCUBATION): inactive; negative
mutagenic call (Test System: AMES SALMONELLA TYPHIMURIUM, Strain/Indicator: TA1535, Metabolic Activation: HAMSTER, LIVER, S-9, AROCLOR 1254 (10%), Method: PREINCUBATION): inactive; negative
mutagenic call [13]: inactive; negative
mutagenic call (Test System: AMES SALMONELLA TYPHIMURIUM, Strain/Indicator: TA1535, Metabolic Activation: RAT, LIVER, S-9, AROCLOR 1254 (10%), Method: PREINCUBATION): inactive; negative
mutagenic call (Test System: AMES SALMONELLA TYPHIMURIUM, Strain/Indicator: TA1537, Metabolic Activation: HAMSTER, LIVER, S-9, AROCLOR 1254 (10%), Method: PREINCUBATION): inactive; negative
mutagenic call [14]: inactive; negative
mutagenic call (Test System: AMES SALMONELLA TYPHIMURIUM, Strain/Indicator: TA1537, Metabolic Activation: RAT, LIVER, S-9, AROCLOR 1254 (10%), Method: PREINCUBATION): inactive; negative

C1CSCCO1
mutagenic call [1]: inactive; negative
mutagenic call (Test System: AMES SALMONELLA TYPHIMURIUM, Strain/Indicator: TA98, Metabolic Activation: S-9, Method: STANDARD PLATE): inactive; negative
mutagenic call [3]: inactive; negative
mutagenic call (Test System: AMES SALMONELLA TYPHIMURIUM, Strain/Indicator: TA100, Metabolic Activation: S-9, Method: STANDARD PLATE): inactive; negative
mutagenic call [5]: inactive; negative
mutagenic call (Test System: AMES SALMONELLA TYPHIMURIUM, Strain/Indicator: TA1535, Metabolic Activation: S-9, Method: STANDARD PLATE): inactive; negative
mutagenic call [7]: inactive; negative
mutagenic call (Test System: AMES SALMONELLA TYPHIMURIUM, Strain/Indicator: TA1537, Metabolic Activation: S-9, Method: STANDARD PLATE): inactive; negative
mutagenic call [9]: inactive; negative
mutagenic call (Test System: AMES SALMONELLA TYPHIMURIUM, Strain/Indicator: TA1538, Metabolic Activation: S-9, Method: STANDARD PLATE): inactive; negative

O=Nc1ccc2ccc3c4ccccc4cc4ccc1c2c43
mutagenic call (Test System: AMES SALMONELLA TYPHIMURIUM, Strain/Indicator: TA98 (1,8-DNP6), Metabolic Activation: NONE, Method: STANDARD PLATE): active; positive
mutagenic call (Test System: AMES SALMONELLA TYPHIMURIUM, Strain/Indicator: TA98 (NR), Metabolic Activation: NONE, Method: STANDARD PLATE): active; positive
mutagenic call [1]: active; positive
mutagenic call (Test System: CHINESE HAMSTER OVARY, Strain/Indicator: CHO-K1-BH4 (HGPRT), Metabolic Activation: NONE): active; positive
